# Data as given in US6255347A (priority 1997, dated 2001).
# Entries after “also recorded” stand apart in the source; their conditions may differ.
# Key:
# A-427 = details: cited from earlier work
# [1] = Estimated unbound fraction of ibuprofen in culture media; type: in vitro ADME
# rat colon cancer = details: carcinogen induced; cited from earlier work
# NIH 3T3 cells = assay: Foci formation assay, inhibition of PMA induced neoplastic transformation of NIH 3T3 cells; type: cell-based; details: for inhibition of PMA induced foci formation / neoplastic transformation: ibuprofen 10 or 100 μg/ml
# Protocol: (§1) NIH 3T3 cells (American Type Culture Collection, Rockville, Md.) were cultured in DMEM supplemented with 10% FBS inoculated at 10^4 cells/35 […] dish. […] PMA and ibuprofen were dissolved in DMSO and stored in 5% DMSO stock solutions that were diluted a 1000-fold with culture media prior to use. […] The media containing freshly added PMA and ibuprofen were changed every 60 hours for both the foci formation assay and PKCα analysis by Western blot.
# Subsequent to washing with a tris/ saline buffer, the cells were stained with a solution of 4% aqueous Giemsa stain in phosphate buffer (pH 7.0). Foci of transformed cells were then visible by eye due to their high local density and verified by under light microscopy.
# [2] = test system: mouse mammary glands cancer; details: carcinogen induced; cited from earlier work
# lung and gastric cancer = details: carcinogen induced; cited from earlier work
# [3] = test system: APPs secretion by NIH 3T3 cell lines; details: 50 μM
# MCF 7/s = details: cited from earlier work
# [4] = cited from earlier work
# neutrophil = details: by chemotactic agents; cited from earlier work
# APPs [5] = details: 10 mg/kg P.O. bid, 7 days
# Protocol: (§2) The cells were washed twice with phosphate-buffered saline (PBS) at 37° C. and subsequently lysed and scraped in 1 ml ice-cold protein lysis buffer (20 mM Tris-HCl, pH7.4, 2 mM EGTA, 2 mM EDTA, […] leupeptin and […] aprotinin) at 4° C. […] Briefly, cells were homogenized 10× in 15 ml glass homogenizer with a tight-fitting pestle and centrifuged at 900×g for 10 min. The resulting supernatant was then centrifuged at 100,000×g for 60 min to produce a nucleus-free membrane fraction (pellet) and a cytosol fraction (supernatant) for Western blots. The 900×g nuclear pellet was suspended in the 2 ml lysis buffer containing 10% sucrose and 0.1% Triton X-100 and washed twice by centrifuging at 1000×g for 10 min, then resuspended in 1 ml of the same buffer without Triton X-100 for Western blots. The purity of the fractions was monitored by light microscopy. […] The samples were stored at -70° C. until analysis.
# (§3) 15 μl of human plasma, 15 μl of rat plasma, CSF or 50 μg of rat brain protein were denatured with 35 μl of sample buffer at 95° C. for 4 min. Denatured proteins were separated by 10% SDS-polyacrylamide gel electrophoresis with a 50 μg or 20 μg protein load for each sample for APPs or PKC, respectively, and electrophoretically transferred from gel to nitrocellulose membrane. […] The immunoreactive bands were developed using enhanced chemilumenescence (ECL. Amersham Life Sci., Little Chalfont, UK), following extensive washing with the blocking buffer. The PKC bands were verified in each case by competitively blocking the signal with the peptide corresponding to each of PKCs. The bands were quantitated by scanning densitometry. Quantitative comparisons were made between samples processed simultaneously on one blot.
# (§4) Male Sprague-Dawley rats (12 month) were obtained from Harlan-Sprague-Dawley, Inc. (Indianapolis, Ind.) and housed under controlled conditions of temperature humidity and light/dark cycle. […] Rat stomach and duodenum were collected for the quantitation of gastroduodenal lesions. […]
# APP = details: 10 mg/kg P.O. bid, 7 days
# Protocol: as §2, §3, §4
# Ht-29 = details: cited from earlier work
# UACC 375 = details: cited from earlier work
# [6] = test system: c-jun expression in NIH 3T3 cells; details: cited from earlier work
# PKCα = PKCα translocation in NIH 3T3 cells (subcellular fractionation, Western blot); type: cell-based; details: for PKCα localization: PMA 0.02 μg/ml, 2% FBS
# Protocol: as §1, §2, §3
# AD progression = details: 6-month, double-blind, placebo-controlled; cited from earlier work
# APPs [7] = details: 10 mg/kg P.O. bid, 7 days; remark: listed apart in the source
# Protocol: as §3
# (§5) Male Sprague-Dawley rats (12 month) were obtained from Harlan-Sprague-Dawley, Inc. (Indianapolis, Ind.) and housed under controlled conditions of temperature humidity and light/dark cycle. […] Rat blood, brain and 50 μl of cerebrospinal fluid were collected and stored at -70° C. for APPs and PKC analysis by Western blotting. Rat stomach and duodenum were collected for the quantitation of gastroduodenal lesions.
# The cytosolic and membrane fractions were obtained by differential centrifugation of rat brain tissue treated by ibuprofen. […]
# APPs (105 kDa) = APPs (105 kDa) in human blood; type: in vivo
# Protocol: as §3
# Food intake was restricted until 4 h post dose. […] Over the next 6 days, ibuprofen was administered as 800 mg t.i.d. and subjects were instructed to return on day 3 and 5 for a single blood draw. […] Serum samples were stoiced -20° C. prior to analysis.
# PKC θ = details: cytosolic or membranous fractions
# Protocol: as §2, §3, §5
# (§6) Following separation of cytosolic or membrane proteins of rat brain protein by SDS-polyacrylamide gel electrophoresis, the proteins were transfer to nitrocellular membranes. The membranes were then probed for presence of PKCs using polyclonal antibodies against PKC α, βII, θ, ε, .xi., or γ.
# PKC ε = details: cytosolic or membranous fractions
# Protocol: as §2, §3, §5, §6
# PKC α = test system: PKC α
# Protocol: as §2, §3, §5, §6
# PKC βII = test system: PKC βII
# Protocol: as §2, §3, §5, §6
# PKC γ = details: cytosolic or membranous fractions
# Protocol: as §2, §3, §5, §6
# PKC .xi. = details: cytosolic or membranous fractions
# Protocol: as §2, §3, §5, §6
# rat stomach and duodenum = assay: Gastric ulcer index / gastroduodenal lesions in rat; type: in vivo; details: rat, in vivo
# Protocol: as §5
# The rat stomach and first 12 cm of the duodenum were opened and carefully shed with saline to remove any residual debris and fixed in 10% buffered formaldehyde. Tissues were examined macroscopically (×10) for lesions and hemorrhages. The evaluation of lesions or hemorrhages was based on the ulcer index (UI) reported by Leyck et al. (1985) and expressed as the sum total of lesions per treatment. The scoring units used ranged from 0 to 5, where zero represents no macroscopically visible lesions; 1 represents one to three small ulcers less than 4 mm; 2 represents more than three small ulcers; 3 represents ulcer hemorrhages with several small ulcers; 4 represents large (>4 mm) ulcers; 5 indicates tissue perforation.
# PKC = target: T1, PKC (Rattus norvegicus, UniProt P05696); assay: Protein kinase C activity assay (histone phosphorylation, partially purified rat brain PKC); type: biochemical; details: PMA stimulated, 2 min, 30° C.
# T1 construct: Partially purified PKCα from rat brain; purchased Promega (Madison, Wis.); host or cells: rat brain (tissue enzyme, partially purified)
# Protocol: The following were obtained from the Sigma Chemical Co. (St. […] Anti-PKCα antibody (affinity purified) and its C-terminal region peptide was obtained from Life Technologies (Gaithersburg, Md.). […] All other chemicals were of the highest available purity and were obtained from standard commercial sources. […] Following 2 min initial incubation at 30° C., kinase reactions were initiated by the addition of ^32 P-γ-ATP and enzyme and continued at 30° C. for 2 min. Control incubations contained all assay components except enzyme and ibuprofen. […] All samples were carried out in duplicate.
# [8] = membrane fraction, 10 mg/kg bid 7 days, n = 4 mean ± S.D.
compound,measurement,setting,value
"CC(C)Cc1ccc(C(C)C(=O)O)cc1 (stereo not drawn) [ibuprofen, α-4-(2-methylpropyl) benzeneacetic acid]",inhibition of proliferation,A-427,inhibits the proliferation
same,fraction unbound,[1],~0.05
same,anticancer activity,rat colon cancer,demonstrated anticancer activity
same,effect on NIH 3T3 cell growth patterns without PMA,"NIH 3T3 cells; DMSO vehicle, no PMA",no effect
same,anticancer activity,[2],demonstrated anticancer activity
same,anticancer activity,lung and gastric cancer,demonstrated anticancer activity
same,APPs secretion (in words),[3]; 20 h,increased APPs secretion
same,inhibition of proliferation,MCF 7/s,inhibits the proliferation
same,protein binding (in words),[4],highly protein bound
same,oral absorption,"[4]; suspensions, drops, caplets, chewable tablets",well absorbed orally
same,blocking of neutrophil activation,neutrophil,blocks neutrophil activation by chemotactic agents but this effect is not enantioselective
same,content of cytosolic APPs of rat brain (in words),APPs [5],increased the content of cytosolic APPs
same,content of membrane APP of rat brain (in words),APP,"decreased content of membrane APP of rat brain, but not significantly"
same,inhibition of proliferation,Ht-29,inhibits the proliferation
same,inhibition of proliferation,UACC 375,inhibits the proliferation
"CCCCCCCCCCCCCC(=O)O[C@@H]1[C@@H](C)[C@@]2(O)[C@@H](C=C(CO)C[C@]3(O)C(=O)C(C)=C[C@@H]23)[C@@H]2C(C)(C)[C@]12OC(C)=O [PMA, phorbol 12-myristate 13-acetate]",c-jun expression,[6],transiently induces c-jun expression
same,dish area occupied by foci,"NIH 3T3 cells; PMA 0.02 μg/ml, 2% FBS, 6 weeks",over 50%
same,PKCα localization,PKCα; 2 weeks,"translocation from cytosol to membrane fractions, but interestingly translocation to the nuclear compartment was absent"
same,PKCα localization,PKCα; 30 min,translocation of PKCα to the membrane fraction and some indication of PKCα appearing in the nuclear fraction
same,PKCα localization,PKCα; 4 hours,clear association of PKCα with the nuclear fraction
same,PKCα localization,PKCα; 18 hours,remained at 18 hours despite its disappearance from the membrane and cytosolic fractions
same,PKCα localization,PKCα; 48 hours,cytosolic PKCα had been regenerated but membrane and nuclear sites were not
same,PKCα translocation,"PKCα; reduced media FBS plus PMA 0.02 μg/ml, 4 to 18 hours",significant translocation of PKCα to both nuclear and microsomal membranes
COc1ccc2c(c1)c(CC(=O)O)c(C)n2C(=O)c1ccc(Cl)cc1 [indomethacin],slowing AD progression,AD progression,very effective in slowing AD progression
CC(C)Cc1ccc(C(C)C(=O)O)cc1 (racemic) [RS-ibuprofen],APPs secretion in rat CSF (in words),APPs [7],dramatically increased APPs secretion
same,"Density of APP Bands, CSF",APPs [7]; n = 4 mean ± S.D.,13.63 ± 6.56
same,inhibition of PMA induced foci formation / neoplastic transformation,"NIH 3T3 cells; PMA 0.02 μg/ml, 2% FBS, 6 weeks, listed as Racemic ibuprofen",dramatically decreased
same,inhibition of PMA induced foci formation / neoplastic transformation,"NIH 3T3 cells; PMA 0.02 μg/ml, 2% FBS, 6 weeks, listed as racemic ibuprofen",inhibit the neoplastic transformation; also recorded: substantially inhibited
same,PKCα detectable in the membrane fraction,"PKCα; 10 μg/ml, 2 weeks of PMA",detectable in the membrane fraction
same,inhibition of PKCα translocation from cytosol to nuclear compartments,"PKCα; 10 μg/ml, PMA 4 hours",completely blocked
same,"inhibition of PKCα translocation, racemate versus enantiomers","PKCα; 10 μg/ml, particularly 2 weeks of PMA",less potent than either of the enantiomers
same,human blood APPs (105 kDa),"APPs (105 kDa); 1st dose (800 mg), 0 hour (before dose), n = 4, mean ± S.D.",1.95
same,duration of increased APPs (105 kDa) secretion,"APPs (105 kDa); after 7 days dosing, 800 mg t.i.d. oral",14 days
same,human blood APPs (105 kDa),"APPs (105 kDa); post 1st dose (800 mg), 1 hour, n = 4, mean ± S.D.",3.64
same,human blood APPs (105 kDa),"APPs (105 kDa); post 1st dose (800 mg), 3 hours, n = 4, mean ± S.D.",3.22
same,human blood APPs (105 kDa),"APPs (105 kDa); post 7 days dose (800 mg, tid), 1 hour, n = 4, mean ± S.D.",4.57
same,human blood APPs (105 kDa),"APPs (105 kDa); post 7 days dose (800 mg, tid), 1 day, n = 4, mean ± S.D.",6.15
same,human blood APPs (105 kDa),"APPs (105 kDa); post 7 days dose (800 mg, tid), 2 days, ND = Not detectable",4.77
same,human blood APPs (105 kDa),"APPs (105 kDa); post 7 days dose (800 mg, tid), 3 days, ND = Not detectable",4.33
same,human blood APPs (105 kDa),"APPs (105 kDa); post 7 days dose (800 mg, tid), 4 days, ND = Not detectable",3.37
same,human blood APPs (105 kDa),"APPs (105 kDa); post 7 days dose (800 mg, tid), 14 days, ND = Not detectable",3.77
same,duration of increased APPs (105 kDa) secretion,APPs (105 kDa); single oral 800 mg dose,1 days
same,Density of APPs band,"[3]; 20 h culture, n = 2, mean ± S.D.",6.073 ± 0.55
same,effect on PKC θ content,PKC θ,did not show a dramatic effect
same,effect on PKC ε content,PKC ε,did not show a dramatic effect
same,rat brain PKC α content (in words),PKC α; 7 days of treatment,not significantly
same,Density of PKC α Bands,PKC α; [8],13.61 ± 5.15
same,rat brain PKC βII content (in words),PKC βII; 7 days of treatment,not significantly
same,Density of PKC βII Bands,PKC βII; [8],8.46 ± 3.68
same,effect on PKC γ content,PKC γ,did not show a dramatic effect
same,effect on PKC .xi. content,PKC .xi.,did not show a dramatic effect
same,"Density of APP Bands, Cytosol",APPs [5]; n = 4 mean ± S.D.,9.32 ± 5.35
same,gastropathy (in words),rat stomach and duodenum,induced serious gastric ulcers and hemorrhage
same,concentration inhibiting PKC mediated histone phosphorylation,PKC,2 µM
